In patent US20100029681A1, “HETEROCYCLIC COMPOUNDS AS CALCIUM CHANNEL BLOCKERS” (priority 2006, published 2010):
Where two headings read alike, the source gives them in different places.

Biological target: T1, rat brain N-type calcium channel subunits (α1B+α2δ+β1b cDNA subunits) (Rattus norvegicus, UniProt Q02294)
T1 construct: expressed in transfected cells; host or cells: HEK 293
Assay: N-type calcium channel block, whole cell patch clamp in transfected HEK 293 cells
Type: cell-based
Description: N-type calcium channel blocking activity was assayed in human embryonic kidney cells, HEK 293, stably transfected with the rat brain N-type calcium channel subunits (α1B+α2δ+β1b cDNA subunits). Alternatively, N-type calcium channels (α1B+α2δ+β1b cDNA subunits), L-type channels (α1C+α2δ+β1b cDNA subunits) and P/Q-type channels (α1A+α2δ+β1b cDNA subunits) were transiently expressed in HEK 293 cells. Briefly, cells were cultured in Dulbecco's modified eagle medium (DMEM) supplemented with 10% fetal bovine serum, 200 U/ml penicillin and 0.2 mg/ml streptomycin at 37° C. with 5% CO2. At 85% confluency cells were split with 0.25% trypsin/1 mM EDTA and plated at 10% confluency on glass coverslips. At 12 hours the medium was replaced and the cells transiently transfected using a standard calcium phosphate protocol and the appropriate calcium channel cDNA's. Fresh DMEM was supplied and the cells transferred to 28° C./5% CO2. Cells were incubated for 1 to 2 days prior to whole cell recording.
Whole cell patch clamp experiments were performed using an Axopatch 200B amplifier (Axon Instruments, Burlingame, Calif.) linked to a personal computer equipped with pCLAMP software. The external and internal recording solutions contained, respectively, 5 mM BaCl2, 10 mM MgCl2, 10 mM HEPES, 40 mM TEACl, 10 mM glucose, 87.5 mM CsCl (pH 7.2) and 108 mM CsMS, 4 mM MgCl2, 9 mM EGTA, 9 mM HEPES (pH 7.2). Currents were typically elicited from a holding potential of −80 mV to +10 mV using Clampex software (Axon Instruments). Typically, currents were first elicited with low frequency stimulation (0.067 Hz) and allowed to stabilize prior to application of the compounds. The compounds were then applied during the low frequency pulse trains for two to three minutes to assess tonic block, and subsequently the pulse frequency was increased to 0.2 Hz to assess frequency dependent block. Data were analyzed using Clampfit (Axon Instruments) and SigmaPlot 4.0 (Jandel Scientific).

[1] = −50 mV, read-out: IC50 @ −50 mV
[2] = −80 mV, read-out: IC50 @ −80 mV

T1 sequence (Q02294 whole entry): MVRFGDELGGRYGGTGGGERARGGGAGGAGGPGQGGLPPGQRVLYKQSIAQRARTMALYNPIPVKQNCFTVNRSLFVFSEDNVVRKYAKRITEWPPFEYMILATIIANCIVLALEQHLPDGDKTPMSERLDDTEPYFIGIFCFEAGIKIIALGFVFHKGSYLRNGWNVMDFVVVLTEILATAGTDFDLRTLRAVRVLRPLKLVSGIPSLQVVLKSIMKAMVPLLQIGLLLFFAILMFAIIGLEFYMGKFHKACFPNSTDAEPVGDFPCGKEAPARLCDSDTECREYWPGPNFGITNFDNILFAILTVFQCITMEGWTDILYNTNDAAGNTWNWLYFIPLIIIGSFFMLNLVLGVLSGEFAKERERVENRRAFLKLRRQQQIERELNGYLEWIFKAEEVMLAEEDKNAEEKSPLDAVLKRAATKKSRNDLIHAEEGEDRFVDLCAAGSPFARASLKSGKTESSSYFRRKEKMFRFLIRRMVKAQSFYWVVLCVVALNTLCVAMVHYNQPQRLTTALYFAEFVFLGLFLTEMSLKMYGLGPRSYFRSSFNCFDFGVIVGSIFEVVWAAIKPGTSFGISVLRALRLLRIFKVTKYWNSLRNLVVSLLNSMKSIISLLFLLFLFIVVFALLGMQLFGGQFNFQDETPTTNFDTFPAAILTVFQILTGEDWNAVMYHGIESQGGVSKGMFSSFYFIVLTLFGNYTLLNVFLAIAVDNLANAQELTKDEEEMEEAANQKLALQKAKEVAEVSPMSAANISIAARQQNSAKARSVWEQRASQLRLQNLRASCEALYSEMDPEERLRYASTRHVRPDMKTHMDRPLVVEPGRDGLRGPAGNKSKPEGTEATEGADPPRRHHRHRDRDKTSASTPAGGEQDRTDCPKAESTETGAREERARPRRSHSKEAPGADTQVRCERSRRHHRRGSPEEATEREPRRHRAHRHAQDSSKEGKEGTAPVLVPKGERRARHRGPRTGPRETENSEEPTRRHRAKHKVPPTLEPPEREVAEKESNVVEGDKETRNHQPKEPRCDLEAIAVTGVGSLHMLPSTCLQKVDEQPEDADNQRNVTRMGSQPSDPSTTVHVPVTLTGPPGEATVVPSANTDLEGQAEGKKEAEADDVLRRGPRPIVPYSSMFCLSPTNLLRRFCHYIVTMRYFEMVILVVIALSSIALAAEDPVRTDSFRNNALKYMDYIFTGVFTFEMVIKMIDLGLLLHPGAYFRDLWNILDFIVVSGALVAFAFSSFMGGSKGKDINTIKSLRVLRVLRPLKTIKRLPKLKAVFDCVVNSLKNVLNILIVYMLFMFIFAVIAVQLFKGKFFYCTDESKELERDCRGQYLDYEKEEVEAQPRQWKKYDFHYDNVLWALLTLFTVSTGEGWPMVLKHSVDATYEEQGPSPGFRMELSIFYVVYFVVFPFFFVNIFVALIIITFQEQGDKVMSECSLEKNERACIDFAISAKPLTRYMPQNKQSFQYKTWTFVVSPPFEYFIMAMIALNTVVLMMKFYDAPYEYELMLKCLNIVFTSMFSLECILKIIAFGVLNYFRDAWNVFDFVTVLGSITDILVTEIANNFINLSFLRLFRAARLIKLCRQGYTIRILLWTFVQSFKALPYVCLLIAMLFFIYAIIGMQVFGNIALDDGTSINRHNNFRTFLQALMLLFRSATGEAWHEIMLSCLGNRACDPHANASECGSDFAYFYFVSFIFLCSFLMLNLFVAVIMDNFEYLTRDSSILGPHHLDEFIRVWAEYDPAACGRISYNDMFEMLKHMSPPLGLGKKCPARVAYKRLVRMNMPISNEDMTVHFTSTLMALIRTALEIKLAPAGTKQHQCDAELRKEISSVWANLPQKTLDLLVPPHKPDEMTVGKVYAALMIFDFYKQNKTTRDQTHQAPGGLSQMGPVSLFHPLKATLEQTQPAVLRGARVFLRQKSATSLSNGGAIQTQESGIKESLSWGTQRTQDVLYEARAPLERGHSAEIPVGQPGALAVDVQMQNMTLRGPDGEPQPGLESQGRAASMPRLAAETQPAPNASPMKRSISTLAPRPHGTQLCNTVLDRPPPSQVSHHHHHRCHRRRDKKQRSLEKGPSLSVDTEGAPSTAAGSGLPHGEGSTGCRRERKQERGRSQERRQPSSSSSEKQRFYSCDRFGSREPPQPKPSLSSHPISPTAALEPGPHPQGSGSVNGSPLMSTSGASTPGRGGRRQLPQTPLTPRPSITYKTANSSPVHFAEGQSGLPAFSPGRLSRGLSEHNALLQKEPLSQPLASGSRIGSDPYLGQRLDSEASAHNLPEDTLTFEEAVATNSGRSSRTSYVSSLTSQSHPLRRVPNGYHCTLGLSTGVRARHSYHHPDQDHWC
T1 sequence (P54290 25-944 partner limits assumed): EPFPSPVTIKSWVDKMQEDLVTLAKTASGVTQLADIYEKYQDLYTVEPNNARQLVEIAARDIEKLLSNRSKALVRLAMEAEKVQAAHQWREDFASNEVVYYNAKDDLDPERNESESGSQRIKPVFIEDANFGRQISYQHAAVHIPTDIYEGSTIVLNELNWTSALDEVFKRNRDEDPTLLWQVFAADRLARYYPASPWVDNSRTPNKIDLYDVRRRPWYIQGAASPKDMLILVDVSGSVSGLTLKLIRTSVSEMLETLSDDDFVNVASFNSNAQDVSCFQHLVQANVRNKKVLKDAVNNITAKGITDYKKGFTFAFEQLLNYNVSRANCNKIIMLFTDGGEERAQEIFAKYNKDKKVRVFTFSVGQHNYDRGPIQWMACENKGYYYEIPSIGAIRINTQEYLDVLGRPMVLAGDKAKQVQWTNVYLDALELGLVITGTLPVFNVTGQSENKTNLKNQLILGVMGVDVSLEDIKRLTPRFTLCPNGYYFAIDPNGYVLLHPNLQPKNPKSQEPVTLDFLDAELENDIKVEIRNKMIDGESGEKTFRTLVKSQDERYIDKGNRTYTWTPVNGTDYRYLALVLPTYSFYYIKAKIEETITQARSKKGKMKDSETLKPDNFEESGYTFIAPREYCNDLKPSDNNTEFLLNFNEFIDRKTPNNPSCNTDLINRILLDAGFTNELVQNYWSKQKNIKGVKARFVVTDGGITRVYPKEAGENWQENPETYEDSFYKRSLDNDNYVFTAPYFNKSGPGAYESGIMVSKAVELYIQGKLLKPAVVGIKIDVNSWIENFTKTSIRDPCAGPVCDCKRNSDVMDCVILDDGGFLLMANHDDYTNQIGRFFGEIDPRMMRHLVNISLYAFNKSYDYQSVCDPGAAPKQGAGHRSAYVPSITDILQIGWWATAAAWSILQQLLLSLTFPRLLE
T1 sequence (P54290 945-1091 partner limits assumed): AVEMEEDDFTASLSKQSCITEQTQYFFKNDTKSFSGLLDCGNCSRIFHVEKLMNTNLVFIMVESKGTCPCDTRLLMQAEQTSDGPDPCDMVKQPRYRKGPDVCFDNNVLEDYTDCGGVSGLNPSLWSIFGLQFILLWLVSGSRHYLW
T1 sequence (P54283 whole entry partner): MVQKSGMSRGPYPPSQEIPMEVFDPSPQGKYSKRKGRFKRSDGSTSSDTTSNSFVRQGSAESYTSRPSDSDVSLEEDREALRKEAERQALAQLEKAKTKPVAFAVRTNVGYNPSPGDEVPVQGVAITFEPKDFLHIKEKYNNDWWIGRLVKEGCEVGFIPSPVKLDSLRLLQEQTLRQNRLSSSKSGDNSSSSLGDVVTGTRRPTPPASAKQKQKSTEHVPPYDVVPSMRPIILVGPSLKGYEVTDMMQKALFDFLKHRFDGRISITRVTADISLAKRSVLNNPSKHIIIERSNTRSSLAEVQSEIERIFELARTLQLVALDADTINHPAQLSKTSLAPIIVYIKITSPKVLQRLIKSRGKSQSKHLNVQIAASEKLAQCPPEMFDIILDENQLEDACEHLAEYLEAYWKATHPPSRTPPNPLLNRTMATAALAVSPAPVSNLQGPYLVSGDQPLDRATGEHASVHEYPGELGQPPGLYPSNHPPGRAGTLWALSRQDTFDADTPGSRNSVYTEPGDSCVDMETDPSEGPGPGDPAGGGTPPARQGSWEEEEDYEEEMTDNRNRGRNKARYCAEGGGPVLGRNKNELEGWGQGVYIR

SMILES | IC50 [1] [µM] | IC50 [2] [µM]
CS(=O)(=O)c1ccc2nc(NC(=O)CN3CCN(C(c4ccccc4)c4ccccc4)CC3)sc2c1 [Compound 20, 2-(4-benzhydrylpiperazin-1-yl)-N-(6-mesylbenzo[d]thiazol-2-yl)acetamide] | 1.64 | 3.13
O=C(CN1CCN(C(c2ccccc2)c2ccccc2)CC1)Nc1nc2ccccc2s1 [Compound 16, 2-(4-benzhydrylpiperazin-1-yl)-N-(benzo[d]thiazol-2-yl)acetamide] | 0.6 | 1.21
O=C(CN1CCN(C(c2ccccc2)c2ccccc2)CC1)Nc1nc2ccc(OC(F)(F)F)cc2s1 [Compound 18, 2-(4-benzhydrylpiperazin-1-yl)-N-(6-trifluoromethoxybenzo[d]thiazol-2-yl)acetamide] | 1.16 | 2.9
O=C(CN1CCN(C(c2ccc(F)cc2)c2ccc(F)cc2)CC1)Nc1nccs1 [Compound 4, 2-(4-(bis(4-fluorophenyl)methyl)piperazin-1-yl)-N-(thiazol-2-yl)acetamide] | 1.2 | 3.4
O=C(CN1CCN(C(c2ccccc2)c2ccccc2)CC1)Nc1nc2ccc(Cl)cc2s1 [Compound 11, 2-(4-benzhydrylpiperazin-1-yl)-N-(6-chlorobenzo[d]thiazol-2-yl)acetamide] | 1.6 | 3.4
Cc1ccc(-c2csc(NC(=O)CN3CCN(C(c4ccc(F)cc4)c4ccc(F)cc4)CC3)n2)cc1 [Compound 10, 2-(4-(bis(4-fluorophenyl)methyl)piperazin-1-yl)-N-(4-p-tolylthiazol-2-yl)acetamide] | 1.91 | 3.54
Cc1cnc(NC(=O)CN2CCN(C(c3ccccc3)c3ccccc3)CC2)s1 [Compound 5, 2-(4-benzhydrylpiperazin-1-yl)-N-(5-methylthiazol-2-yl)acetamide] | 0.78 | 1.95
Cc1ccc(-c2csc(NC(=O)CN3CCN(C(c4ccccc4)c4ccccc4)CC3)n2)cc1 [Compound 9, 2-(4-benzhydrylpiperazin-1-yl)-N-(4-p-tolylthiazol-2-yl)acetamide] | 2.5 | 6.4
O=C(CN1CCN(C(c2ccc(F)cc2)c2ccc(F)cc2)CC1)Nc1nc2ccc(Cl)cc2s1 [Compound 12, 2-(4-(bis(4-fluorophenyl)methyl)piperazin-1-yl)-N-(6-chlorobenzo[d]thiazol-2-yl)acetamide] | 2.56 | 4.58
COc1ccc2nc(NC(=O)CN3CCN(C(c4ccccc4)c4ccccc4)CC3)sc2c1 [Compound 19, 2-(4-benzhydrylpiperazin-1-yl)-N-(6-methoxybenzo[d]thiazol-2-yl)acetamide] | 1.54 | 3.16

These reach a lower IC50 [1]. Values come first.

IC50 [1] [µM] | IC50 [2] [µM] | SMILES
0.4 | 0.77 | O=C(CN1CCN(C(c2ccccc2)c2ccccc2)CC1)Nc1nc2ccc(F)cc2s1 [Compound 1, 2-(4-benzhydrylpiperazin-1-yl)-N-(6-fluorobenzo[d]thiazol-2-yl)acetamide]
0.25 | 0.29 | O=C(CN1CCN(C(c2ccccc2)c2ccccc2)CC1)Nc1nc2ccccc2[nH]1 [Compound 14, 2-(4-benzhydrylpiperazin-1-yl)-N-(1H-benzo[d]imidazol-2-yl)acetamide]
0.53 | 2.53 | O=C(CN1CCN(C(c2ccc(F)cc2)c2ccc(F)cc2)CC1)Nc1nc2ccccc2s1 [Compound 17, N-(benzo[d]thiazol-2-yl)-2-(4-(bis(4-fluorophenyl)methyl)piperazin-1-yl)acetamide]
0.53 | 1.04 | O=C(CN1CCN(C(c2ccc(F)cc2)c2ccc(F)cc2)CC1)Nc1ncc(Cl)s1 [Compound 8, 2-(4-(bis(4-fluorophenyl)methyl)piperazin-1-yl)-N-(5-chlorothiazol-2-yl)acetamide]
0.49 | 0.92 | O=C(CN1CCN(C(c2ccc(F)cc2)c2ccc(F)cc2)CC1)Nc1nc2ccc(F)cc2s1 [Compound 2, 2-(4-(bis(4-fluorophenyl)methyl)piperazin-1-yl)-N-(6-fluorobenzo[d]thiazol-2-yl)acetamide]
